Data reported in publication PMC11477482 (Molecules, 2024).

Test system: RAW264.7 cells (mitochondrial O2− production)
Assay: Mitochondrial antioxidant activity (MitoSOX, rotenone-induced superoxide)
Format: cell-based, mouse
Settings: rotenone 20 μM alone, oxidative stress inducer
Description: The human keratinocytes (HaCaT, CLS 300493, Eppelheim, Germany) cell line was cultured with Dulbecco’s Modified Eagle’s Medium (DMEM) (Sigma-Aldrich, St. Louis, MO, USA), supplemented with 10% (v/v) of heat-inactivated fetal bovine serum (FBS), 1% (v/v) antibiotic solution (from a 10,000 U/mL penicillin and 10,000 μg/mL streptomycin stock) (Gibco, Carlsbad, CA, USA), 3.7 g/L sodium bicarbonate, and 1 mM sodium pyruvate (Sigma-Aldrich, St. Louis, MO, USA). The cell culture of keratinocytes was detached with EDTA solution 1X (Sigma-Aldrich, St. Louis, MO, USA) when the cells reached 70–80% confluence in cell culture flasks. The mouse macrophage cell line (RAW 264.7, ATCC TIB-71, Manassas, VA, USA) was cultured in DMEM supplemented with 10% (v/v) non-inactivated FBS, 1% (v/v) antibiotic solution, 1.5 g/L sodium bicarbonate, and 1 mM sodium pyruvate. Macrophages were mechanically detached with a cell scraper and subcultured in (1:10) proportion of cellular suspension to a final volume of DMEM. The human monocytic cell line THP-1 (ATCC® TIB-202™, American Type Culture Collection, Manassas, VA, USA) was cultivated in RPMI 1640 supplemented with 10% inactivated FBS, 25 mM (D)-glucose, 10 mM HEPES, 1 mM sodium pyruvate, 100 U/mL penicillin, and 100 μg/mL streptomycin, and maintained at a cell density of 0.4 × 10^6 cells/mL. Cells were subcultured every 2 or 3 days and maintained in culture for 2–3 months, according to ATCC® instructions.
Mitochondrial superoxide (O2^−) generation was determined using the MitoSOX Red kit, according to the manufacturer’s instructions. Briefly, 5.0 × 10^5 cells/mL were plated in a 12-well plate and incubated for 24 h at 37 °C. The cells were then exposed to the AA, AAG and AAGS solution (500 µM), and after 1 h, rotenone (20 μM) was added, followed by incubation for an additional 5 h. The cells were then carefully detached, transferred to microtubes, and centrifuged at 500× g for 3 min. The cell pellet was washed with HBSS solution (2 × 1 mL), resuspended in PBS solution, and 300 µL was collected in two microtubes for unstained (150 µL) and stained (150 µL) conditions. The stained cells were incubated with 100 μL of freshly prepared MitoSOX solution 2.5 µM at 37 °C for 15 min in the dark. The stained cells were washed with HBSS solution (2 × 1 mL), and the cell pellet was resuspended in 100 μL of PBS and analyzed by flow cytometry using a BD Accuri™ C6 cytometer (San Jose, CA, USA).
CD86 and CD54 levels were analyzed by flow cytometry using the acquisition channels FL1 and FL4. Mitochondrial O2^− production was measured by flow cytometry using the acquisition channel FL2. The relative fluorescence intensity (RFI) of CD86 and CD54 (THP-1 maturation assay) and MitoSOX (mitochondrial antioxidant activity) in the control and chemical-treated cells, based on the geometric mean fluorescence intensity (MFI), was calculated according to the following equation: RFI=MFI of chemical treated cells−MFI of chemical treated unstained cells/MFI of control treated cells−MFI of control unstained cells ×100

SMILES: C=C(C)[C@H]1Cc2c(ccc3c2O[C@@H]2COc4cc(OC)c(OC)cc4[C@@H]2C3=O)O1 [Rotenone]
- relative fluorescence intensity (RFI) of MitoSOX: 269.70 ± 11.63%
